A value given as a limit tells only on which side of the number the result lay.

We go through 1 compound from patent publication US20230060174A1, “PHARMACEUTICAL COMPOSITION OF TRICYCLIC PDE3/PDE4 DUAL INHIBITOR COMPOUND” (CHIA TAI TIANQING PHARMACEUTICAL GROUP CO., LTD., priority 2020, published 2023).

In one assay the target is T1, CYP2D6 (Homo sapiens, UniProt P10635).
T1 construct: co-incubated with human liver microsomes; from tissue; host or cells: human liver microsomes
Description: Inhibition of human liver microsomal CYP2D6 (dextromethorphan probe). It is filed as in vitro ADME. The following applies: human liver microsomes. The protocol:
(§1) Experimental Example 6: Inhibitory effect on activity of isoenzymes (CYP1A2, CYP2C9, CYP2C19, CYP2D6 and CYP3A4) of human liver microsomal cytochrome P450 A total of 5 specific probe substrates of 5 isoenzymes of CYP, namely phenacetin (CYP1A2), diclofenac (CYP2C9), (S)-mephenytoin (CYP2C19), dextromethorphan (CYP2D6) and midazolam (CYP3A4) were each co-incubated with human liver microsomes and the compound of formula (I), and then reduced nicotinamide adenine dinucleotide phosphate (NADPH) was added to initiate the reaction. After the reaction was completed, the samples were treated, and the concentrations of 5 metabolites (acetaminophen, 4′-hydroxydiclofenac, 4′-hydroxymephenytoin, dextrorphan and l′-hydroxymidazolam) generated from the specific substrates were quantitatively detected by lC-MS/MS to calculate the correcnondino- half maximal inhibitory concentrationc (IC50)

A further assay deals with T2, CYP2C9 (Homo sapiens, UniProt P11712).
T2 construct: co-incubated with human liver microsomes; from tissue; host or cells: human liver microsomes
T2 sequence (P11712 whole entry): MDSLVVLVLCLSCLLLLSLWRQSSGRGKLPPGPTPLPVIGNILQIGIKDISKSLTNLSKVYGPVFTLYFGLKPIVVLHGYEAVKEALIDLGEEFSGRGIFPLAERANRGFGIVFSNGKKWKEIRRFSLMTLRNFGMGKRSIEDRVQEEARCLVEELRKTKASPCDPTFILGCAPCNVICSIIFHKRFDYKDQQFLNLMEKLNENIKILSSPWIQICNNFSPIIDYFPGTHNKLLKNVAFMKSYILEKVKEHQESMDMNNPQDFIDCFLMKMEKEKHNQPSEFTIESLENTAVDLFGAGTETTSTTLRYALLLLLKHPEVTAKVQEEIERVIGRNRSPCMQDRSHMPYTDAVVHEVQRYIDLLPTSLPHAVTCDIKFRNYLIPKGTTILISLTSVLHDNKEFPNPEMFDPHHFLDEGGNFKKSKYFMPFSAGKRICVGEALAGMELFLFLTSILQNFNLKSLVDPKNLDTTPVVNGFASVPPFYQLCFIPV
Kind of assay: Inhibition of human liver microsomal CYP2C9 (diclofenac probe). It is filed as in vitro ADME. The following applies: human liver microsomes. The protocol:
as §1

A further assay concerns the target T3, recombinant human PDE3A (Homo sapiens, UniProt Q14432).
T3 construct: amino acid 669-end; GST (N); host or cells: Sf9 insect cells (baculovirus)
Description: In vitro inhibitory activity against PDE 3A enzyme (fluorescence polarization). To be noted: 1 μM cAMP substrate. Type of assay: biochemical. The protocol: Experimental Example 3: In vitro detection of the inhibitory activity of the compound against PDE 3A enzyme
Objective: to determine the AMP/GMP expression based on fluorescence polarization, i.e., to trace binding of AMP/GMP to antibody so as to indicate enzyme activity.
Buffer solution: 10 mM Tris—HCl (pH 7.5), 5 mM MgCl2, 0.01% Brij 35, 1 mM dithiothreitol (DTT), and 1% DMSO.
Enzyme: recombinant human PDE3A (Gene accession number: NM 000921; amino acid 669-end) was expressed by baculovirus in Sf9 insect cells using an N-terminal GST tag, with the molecular weight being 84 kDa.
Enzyme substrate: 1 μM cAMP Detection: TranscreenerOAMP2/GMP2 antibody and AMP2/GMP2 AlexaFluor633 tracer.
Procedures: • 1. The recombinant human PDE3A enzyme and enzyme substrate (μM cAMP) were each dissolved in newly prepared experimental buffer solution; • 2. […] The measurement range of fluorescence polarization was […]. • Data analysis: the fluorescence polarization signal was converted to nM based on AMP/GMP standard curve and the percentage enzyme activity relative to DMSO control calculated by Excel. […] The measurement range of fluorescence polarization was Ex/Em=620/688. • […]

A further assay addresses T4, CYP1A2 (Homo sapiens, UniProt P05177).
T4 construct: co-incubated with human liver microsomes; from tissue; host or cells: human liver microsomes
T4 sequence (P05177 1-516): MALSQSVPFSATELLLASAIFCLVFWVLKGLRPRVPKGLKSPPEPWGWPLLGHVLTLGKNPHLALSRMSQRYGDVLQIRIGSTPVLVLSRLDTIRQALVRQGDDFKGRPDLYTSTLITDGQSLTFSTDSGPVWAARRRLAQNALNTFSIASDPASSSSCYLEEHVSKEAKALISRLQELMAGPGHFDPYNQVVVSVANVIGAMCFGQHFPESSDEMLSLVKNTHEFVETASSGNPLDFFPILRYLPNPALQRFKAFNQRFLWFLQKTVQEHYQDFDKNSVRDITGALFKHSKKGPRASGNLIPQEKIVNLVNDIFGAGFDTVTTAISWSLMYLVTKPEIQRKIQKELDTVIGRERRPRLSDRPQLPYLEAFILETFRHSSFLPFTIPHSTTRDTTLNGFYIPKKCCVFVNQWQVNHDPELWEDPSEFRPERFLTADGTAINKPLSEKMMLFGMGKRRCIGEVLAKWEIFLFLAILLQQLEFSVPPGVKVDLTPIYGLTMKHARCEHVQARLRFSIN
Kind of assay: Inhibition of human liver microsomal CYP1A2 (phenacetin probe). To be noted: human liver microsomes. It is filed as in vitro ADME. The protocol: as §1

T3 sequence (Q14432 669-1141 limits assumed): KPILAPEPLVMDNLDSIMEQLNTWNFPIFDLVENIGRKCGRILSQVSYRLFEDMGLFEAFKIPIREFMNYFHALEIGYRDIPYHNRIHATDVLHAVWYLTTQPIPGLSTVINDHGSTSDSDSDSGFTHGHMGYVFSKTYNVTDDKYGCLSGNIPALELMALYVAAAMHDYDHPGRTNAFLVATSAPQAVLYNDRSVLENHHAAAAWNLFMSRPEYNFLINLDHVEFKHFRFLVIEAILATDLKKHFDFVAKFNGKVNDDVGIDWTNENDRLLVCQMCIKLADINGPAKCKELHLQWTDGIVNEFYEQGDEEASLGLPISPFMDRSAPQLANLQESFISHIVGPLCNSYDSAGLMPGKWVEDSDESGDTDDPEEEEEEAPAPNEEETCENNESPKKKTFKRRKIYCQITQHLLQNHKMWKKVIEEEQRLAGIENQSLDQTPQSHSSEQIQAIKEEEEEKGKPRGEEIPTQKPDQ
T1 sequence (P10635 whole entry): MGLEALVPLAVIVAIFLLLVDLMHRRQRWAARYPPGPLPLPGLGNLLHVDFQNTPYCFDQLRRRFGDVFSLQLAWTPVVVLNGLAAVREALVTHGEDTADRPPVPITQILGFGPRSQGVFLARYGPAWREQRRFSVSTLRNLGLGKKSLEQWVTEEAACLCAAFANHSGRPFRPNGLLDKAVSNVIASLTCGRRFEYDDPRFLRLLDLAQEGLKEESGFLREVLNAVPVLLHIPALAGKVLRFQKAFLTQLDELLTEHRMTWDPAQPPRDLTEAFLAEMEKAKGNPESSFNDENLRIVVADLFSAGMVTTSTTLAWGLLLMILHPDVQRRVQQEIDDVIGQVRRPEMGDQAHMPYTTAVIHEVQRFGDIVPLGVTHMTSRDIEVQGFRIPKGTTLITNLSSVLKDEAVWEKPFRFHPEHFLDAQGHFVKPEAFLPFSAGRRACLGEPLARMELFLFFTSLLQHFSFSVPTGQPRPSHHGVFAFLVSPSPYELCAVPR

`CCOc1cc2c(cc1OC)-c1c/c(=N\c3c(C)cc(C)cc3C)n(CCNC(=O)c3c(O)nnn3C)c(=O)n1CC2` [Compound of formula (I)]: the IC50 on CYP2D6 was not below 50 µM; at CYP2C9 it was 31 µM; on recombinant human PDE3A, 0.03 nM; against CYP1A2, not below 50 µM.
